In brackets after ≈: the same amount, converted by molar mass.
Experiments:
Assay type in all cases: functional
Klebsiella pneumoniae [1] = assay: Antibacterial activity against Klebsiella pneumoniae YC by Etest method
Escherichia coli [2] = assay: Antibacterial activity against Escherichia coli harboring pNYC plasmid expressing blaKPC gene by Etest method
Escherichia coli [3] = assay: Antibacterial activity against Escherichia coli harboring pRYC plasmid expressing blaKPC gene by Etest method
Klebsiella pneumoniae [4] = assay: Antibacterial activity against Klebsiella pneumoniae GR by Etest method
Escherichia coli [5] = assay: Antibacterial activity against Escherichia coli harboring pNGR plasmid expressing blaKPC gene by Etest method
Klebsiella pneumoniae [6] = assay: Antibacterial activity against Klebsiella pneumoniae 633 by Etest method
Escherichia coli [7] = assay: Antibacterial activity against Escherichia coli harboring pBC633 plasmid expressing blaKPC gene by Etest method
Klebsiella pneumoniae [8] = assay: Antibacterial activity against Klebsiella pneumoniae KN2303 by Etest method
Escherichia coli [9] = assay: Antibacterial activity against Escherichia coli harboring pBC2303 expressing blaKPC gene plasmid by Etest method
Pseudomonas aeruginosa [10] = assay: Antibacterial activity against Pseudomonas aeruginosa 2404 plasmid by Etest method
Pseudomonas aeruginosa [11] = assay: Antibacterial activity against Pseudomonas aeruginosa KG2505 harboring pCOL plasmid by Etest method
Escherichia coli [12] = assay: Antibacterial activity against Escherichia coli DH10B expressing blaKPC gene by Etest method
Escherichia coli [13] = assay: Antibacterial activity against Escherichia coli harboring pCOL plasmid expressing blaKPC gene by Etest method
Pseudomonas aeruginosa [14] = assay: Antibacterial activity against Pseudomonas aeruginosa KG2505 by Etest method
Klebsiella pneumoniae [15] = assay: Antibacterial activity against Klebsiella pneumoniae YC by Etest method in presence of beta-lactamase inhibitor clavulanic acid
Escherichia coli [16] = assay: Antibacterial activity against Escherichia coli harboring pNYC plasmid expressing blaKPC gene by Etest method in presence of beta-lactamase inhibitor clavulanic acid
Escherichia coli [17] = assay: Antibacterial activity against Escherichia coli harboring pRYC plasmid expressing blaKPC gene by Etest method in presence of beta-lactamase inhibitor clavulanic acid
Klebsiella pneumoniae [18] = assay: Antibacterial activity against Klebsiella pneumoniae GR by Etest method in presence of beta-lactamase inhibitor clavulanic acid
Escherichia coli [19] = assay: Antibacterial activity against Escherichia coli harboring pNGR plasmid expressing blaKPC gene by Etest method in presence of beta-lactamase inhibitor clavulanic acid
Klebsiella pneumoniae [20] = assay: Antibacterial activity against Klebsiella pneumoniae 633 by Etest method in presence of beta-lactamase inhibitor clavulanic acid
Escherichia coli [21] = assay: Antibacterial activity against Escherichia coli harboring pBC633 plasmid expressing blaKPC gene by Etest method in presence of beta-lactamase inhibitor clavulanic acid
Klebsiella pneumoniae [22] = assay: Antibacterial activity against Klebsiella pneumoniae KN2303 by Etest method in presence of beta-lactamase inhibitor clavulanic acid
Escherichia coli [23] = assay: Antibacterial activity against Escherichia coli harboring pBC2303 expressing blaKPC gene plasmid by Etest method in presence of beta-lactamase inhibitor clavulanic acid
Pseudomonas aeruginosa [24] = assay: Antibacterial activity against Pseudomonas aeruginosa 2404 plasmid by Etest method in presence of beta-lactamase inhibitor clavulanic acid
Pseudomonas aeruginosa [25] = assay: Antibacterial activity against Pseudomonas aeruginosa KG2505 harboring pCOL plasmid by Etest method in presence of beta-lactamase inhibitor clavulanic acid
Escherichia coli [26] = assay: Antibacterial activity against Escherichia coli DH10B expressing blaKPC gene by Etest method in presence of beta-lactamase inhibitor clavulanic acid
Escherichia coli [27] = assay: Antibacterial activity against Escherichia coli harboring pCOL plasmid expressing blaKPC gene by Etest method in presence of beta-lactamase inhibitor clavulanic acid
Pseudomonas aeruginosa [28] = assay: Antibacterial activity against Pseudomonas aeruginosa KG2505 by Etest method in presence of beta-lactamase inhibitor clavulanic acid

SMILES | MIC (Klebsiella pneumoniae [1]) [µg/mL] | MIC (Escherichia coli [2]) [µg/mL] | MIC (Escherichia coli [3]) [µg/mL] | MIC (Klebsiella pneumoniae [4]) [µg/mL] | MIC (Escherichia coli [5]) [µg/mL] | MIC (Klebsiella pneumoniae [6]) [µg/mL] | MIC (Escherichia coli [7]) [µg/mL] | MIC (Klebsiella pneumoniae [8]) [µg/mL] | MIC (Escherichia coli [9]) [µg/mL] | MIC (Pseudomonas aeruginosa [10]) [µg/mL] | MIC (Pseudomonas aeruginosa [11]) [µg/mL] | MIC (Escherichia coli [12]) [µg/mL] | MIC (Escherichia coli [13]) [µg/mL] | MIC (Pseudomonas aeruginosa [14]) [µg/mL] | MIC (Klebsiella pneumoniae [15]) [µg/mL] | MIC (Escherichia coli [16]) [µg/mL] | MIC (Escherichia coli [17]) [µg/mL] | MIC (Klebsiella pneumoniae [18]) [µg/mL] | MIC (Klebsiella pneumoniae [20]) [µg/mL] | MIC (Escherichia coli [21]) [µg/mL] | other results
C[C@@H](O)[C@H]1C(=O)N2C(C(=O)O)=C(S[C@@H]3CN[C@H](C(=O)Nc4cccc(C(=O)O)c4)C3)[C@H](C)[C@H]12 | 24 (≈ 50.5 µM) | 0.5 (≈ 1.05 µM) | 4 (≈ 8.41 µM) | 12 (≈ 25.2 µM) | 0.38 (≈ 0.799 µM) | > 32 | 2 (≈ 4.21 µM) | > 32 | 0.25 (≈ 0.526 µM) | > 32 | > 32 | 0.25 (≈ 0.526 µM) | 0.004 (≈ 0.00841 µM) | 0.25 (≈ 0.526 µM) | 2 | 0.05 | 1.5 | 6 | 8 | 0.19 | MIC (Escherichia coli [19]): 0.01 µg/mL; MIC (Klebsiella pneumoniae [22]): > 32 µg/mL; MIC (Escherichia coli [23]): 0.02 µg/mL; MIC (Pseudomonas aeruginosa [24]): > 32 µg/mL; MIC (Pseudomonas aeruginosa [25]): 2 µg/mL; MIC (Escherichia coli [26]): 0.05 µg/mL; MIC (Escherichia coli [27]): 0.002 µg/mL; MIC (Pseudomonas aeruginosa [28]): 0.03 µg/mL
CC1(C)S[C@@H]2[C@H](NC(=O)[C@H](N)c3ccc(O)cc3)C(=O)N2[C@H]1C(=O)O [AMOXICILLIN] | > 256 | > 256 | > 256 | > 256 | > 256 | > 256 | > 256 | > 256 | > 256 | > 256 | > 256 | > 256 | 2 (≈ 5.47 µM) | 0.25 (≈ 0.684 µM) | 32 | 32 | 64 | 48 | 32 | 32 | MIC (Escherichia coli [19]): 24 µg/mL; MIC (Klebsiella pneumoniae [22]): > 256 µg/mL; MIC (Escherichia coli [23]): 24 µg/mL; MIC (Pseudomonas aeruginosa [24]): > 256 µg/mL; MIC (Pseudomonas aeruginosa [25]): > 256 µg/mL; MIC (Escherichia coli [26]): 24 µg/mL; MIC (Escherichia coli [27]): 2 µg/mL; MIC (Pseudomonas aeruginosa [28]): 0.25 µg/mL
C[C@@H](O)[C@H]1C(=O)N2C(C(=O)O)=C(SCCNC=N)C[C@H]12 [IMIPENEM ANHYDROUS] | 4 (≈ 13.4 µM) | 8 (≈ 26.7 µM) | 12 (≈ 40.1 µM) | 12 (≈ 40.1 µM) | 1.5 (≈ 5.01 µM) | > 32 | 6 (≈ 20 µM) | > 32 | 1 (≈ 3.34 µM) | > 32 | > 32 | 1.5 (≈ 5.01 µM) | 0.19 (≈ 0.635 µM) | 0.19 (≈ 0.635 µM) | 2 | 2 | 3 | 0.75 | 0.75 | 0.75 | MIC (Klebsiella pneumoniae [22]): > 32 µg/mL; MIC (Pseudomonas aeruginosa [24]): > 32 µg/mL; MIC (Pseudomonas aeruginosa [25]): 2 µg/mL; MIC (Escherichia coli [26]): 0.38 µg/mL; MIC (Escherichia coli [27]): 0.1 µg/mL; MIC (Pseudomonas aeruginosa [28]): 0.19 µg/mL

Reference: ChEMBL document CHEMBL1255302, “Genetic structures at the origin of acquisition of the beta-lactamase bla KPC gene” (2008)
